ChEMBL document CHEMBL1154429, “Identifying mutator phenotypes among fluoroquinolone-resistant strains of Streptococcus pneumoniae using fluctuation analysis” (2007)

Experiments:
Type in all cases: functional
Streptococcus pneumoniae [1] = assay: Antibacterial activity against Streptococcus pneumoniae 3386 with parC S79F, gyrA S81F mutation by […]
Streptococcus pneumoniae [2] = assay: Antibacterial activity against Streptococcus pneumoniae D39-3 with parC S79Y, gyrA S81F mutation by […]
Streptococcus pneumoniae [3] = assay: Antibacterial activity against Streptococcus pneumoniae 455 with parC S79Y, gyrA S81F mutation by […]

Measured: MIC

C[C@H]1COc2c(N3CCN(C)CC3)c(F)cc3c(=O)c(C(=O)O)cn1c23.C[C@H]1COc2c(N3CCN(C)CC3)c(F)cc3c(=O)c(C(=O)O)cn1c23.O [LEVOFLOXACIN]
> 32 µg/mL: all assays above
